In patent publication US20240083946A1, “SELF-ASSEMBLING PEPTIDES, NANOFIBERS, AND METHODS OF USE” (The Board of Regents of the University of Oklahoma, priority 2021, published 2024):

Tested on: OVCAR-8 ovarian cancer cells
Test: Toxicity of peptide sets and individual peptides to OVCAR-8 cells (relative ATP, live/dead imaging)
Type: cell-based
Details: 6 hours, FIGS. 6A-B
Description: Image analysis indicated green cells were living and red cells were dead (color not shown).
Incubation of the peptides with OVCAR-8 ovarian cancer cells were incubated with the peptides of the [AA], [II], [WW] peptide sets. […] Red fluorescence (ethidium homodimer-1) was associated with loss of plasma membrane integrity whereas the green fluorescence correlated with intracellular esterase activity of metabolically active cells (color not shown in figures). Pyroptosis is a newly identified cell death modality characterized by the formation of large bubbles on the plasma membrane and cell swelling. Recently pyroptosis has been classified as a regulated cell death (RCD) by Nomenclature Committee on Cell Death (NCCD). Peptide-treated OVCAR-8 cells indicated pyroptotic morphology. One of the pathways mediating pyroptosis is through cleavage of caspase-3.

KFFWWK
toxicity to OVCAR-8 cells: toxicity
